pIC50: −log10 of the molar value. “Also recorded” adds a separate entry of the source. Read-outs that look alike come from different tables or passages of the source.
Columns and labels:
5-lipoxygenase = molecular target: T1, 5-lipoxygenase (Rattus norvegicus, UniProt P12527); assay: Test of 5-Lipoxygenase Inhibitory Activity (rat PMNL enzyme, radiolabelled arachidonic acid, TLC); format: biochemical, Wistar-King rats
T1 construct: The supernatant was used as the enzyme solution of 5-lipoxygenase; from tissue; host or cells: peritoneal polymorphonuclear leukocytes (PMNL) of glycogen-injected Wistar-King rats, homogenate supernatant
T1 sequence (P12527 1-673): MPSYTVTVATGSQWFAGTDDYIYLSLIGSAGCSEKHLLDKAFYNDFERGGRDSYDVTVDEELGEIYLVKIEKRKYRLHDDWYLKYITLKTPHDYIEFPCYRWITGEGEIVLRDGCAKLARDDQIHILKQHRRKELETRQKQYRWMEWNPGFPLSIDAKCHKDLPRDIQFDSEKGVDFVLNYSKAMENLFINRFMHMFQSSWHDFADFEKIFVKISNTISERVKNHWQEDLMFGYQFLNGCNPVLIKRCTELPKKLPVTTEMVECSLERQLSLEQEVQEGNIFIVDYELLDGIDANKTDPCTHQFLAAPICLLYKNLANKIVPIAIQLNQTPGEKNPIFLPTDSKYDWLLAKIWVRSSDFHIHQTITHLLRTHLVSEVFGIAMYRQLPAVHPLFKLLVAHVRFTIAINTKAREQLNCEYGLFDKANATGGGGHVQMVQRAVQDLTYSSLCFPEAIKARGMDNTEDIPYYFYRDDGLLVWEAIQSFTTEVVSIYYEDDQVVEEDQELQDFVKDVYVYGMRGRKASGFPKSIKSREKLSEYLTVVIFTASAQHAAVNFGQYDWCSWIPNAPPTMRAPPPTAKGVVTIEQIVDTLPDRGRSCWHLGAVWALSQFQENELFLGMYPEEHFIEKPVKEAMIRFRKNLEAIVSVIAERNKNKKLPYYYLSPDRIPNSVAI
Experimental: (1) Formation of Enzyme Solution of 5-Lipoxygenase
Peritoneal polymorphonuclear leukocytes (PMNL) were prepared from normal Wistar-King rats (150-400 g) injected intraperitoneally with 5% (w/v) glycogen (20 mL/kg). A suspension in potassium phosphate buffer (50 mM, pH 7.4) was homogenized and centrifuged. The supernatant was used as the enzyme solution of 5-lipoxygenase.
(2) Measurement of Inhibitory Activity Against 5-Lipoxygenase
0.02 mL Of enzyme solution (2 mg protein/mL) and [1l-^14 C] arachidonic acid ([…]) were incubated with each testing solution (0.02 mL) and Ca^2+ and ATP at 37° C. for 5 min.
After incubation at 37° C. for 5 min, the reaction was terminated by adding 0.2 mL of 0.5 N formic acid, and the metabolite was extracted by 3 mL of ethyl acetate.
Then the extracted solution was subjected to thin-layer chromatography (TLC) and developed with ether/petroleum ether/acetic acid (50:50:1, v/v) at 4° C. The radioactive metabolites generated by 5-lipoxygenase were detected and quantified using autoradiography. The inhibitory activity on 5-lipoxygenase was measured and expressed as a percentage of the control.

lipoxygenase = assay: Inhibition of lipoxygenase enzyme activity (general statement); format: biochemical; details: enzyme not given
[1] = test system: oxazolone-induced inflammation in the ears of mice; details: skin, 1.0 mg/ear; already reported data; cited from earlier work
[2] = test system: TPA-induced inflammation to the ears of mice; details: skin, 0.5 mg/ear; already reported data; cited from earlier work
12-lipoxygenase = assay: Test of 12-Lipoxygenase Inhibitory Activity (rat platelet enzyme, radiolabelled arachidonic acid, TLC); format: biochemical, Wistar-King rats
Experimental: A test of the substances' effectiveness as inhibitors of the enzyme activity of 12-lipoxygenase was conducted for Embodiment 1 to 4.
(1) Formation of Enzyme Solution of 12-Lipoxygenase
Blood was collected from normal Wistar-King rats (150-400 g) and 0.5 mM of EDTA was added as anti-coagulant. The centrifuged supernatant (1,200 rpm for 10 min.) was again centrifuged at 3,000 rpm for 10 min. The deposited platelets were washed by 25 mM Tris/HCl buffer (pH 7.4) 1 mM EDTA /130 mM NaCl. The suspension of platelets in 1 mM EDTA was homogenized and used as an enzyme solution of 12-lipoxygenase.
(2) Measurement of Inhibitory Activity of 12-Lipoxygenase
Four to six testing solutions with different levels of concentration were prepared for Embodiment 1 to 4. 0.13 mL of enzyme solution (2 mg protein/mL) and [1-^14 C] arachidonic acid ([…]) were incubated with a testing solution (0.02 mL) at 37° C. for 5 min.
After incubation at 37° C. for 5 min., the reaction was terminated by adding 0.2 mL of 0.5 N formic acid, and the metabolite was extracted by adding 3 mL of ethyl acetate. […] The radioactive metabolites of 12 lipoxygenase were detected and quantified using autoradiography. The inhibitory activity of 12-lipoxygenase was measured and expressed as a percentage of the control.

[3] = test system: oxazolone-induced inflammation in the ears of mice; assay: Allergy control test against oxazolone-induced inflammation in the ears of mice, application to the skin; format: in vivo, mice (I.C.R)
Experimental: As described in this section, an allergy control test of oxazolone-induced inflammation to the ears of mice was conducted.
(§1) (1) Application to the Skin
Oxazolone solution in ethanol (500 μg/100 μl) was applied to the abdominal region of mice (I.C.R, 5 weeks old, Clair), that had been shaved by hair clippers under an anesthetic of Nembutal (Immunization).
After 5 days of immunization, oxazolone solution in acetone, containing a prescribed amount of the sample being tested (Embodiment 1), was applied to the right ears of the mice (Challenge).
Also, as a comparison, data on NDGA (Comparison 7), ketoprophen (Comparison 8), phenidone (Comparison 9) and mepiramine (Comparison 10) which had already been reported, were listed in Table 3.

[4] = test system: TPA-induced inflammation to the ears of mice; assay: Regulating inflammatory reaction against TPA-induced inflammation to the ears of mice, application to the skin; format: in vivo, mice (ICR); details: for Regulating Coefficient: TPA 0.8 μg/20 μl/ear, after 4 hours
Experimental: as §1
Test solutions for Embodiment 1, 3 and 4 were prepared and applied to the right ears of mice (ICR, 5 weeks old, Clair) by adding acetone solution of TPA (0.8 μg/20 μl/ear).

O=C(/C=C/c1ccc(O)c(O)c1)O[C@H](Cc1ccc(O)c(O)c1)C(=O)O [Comparison 1, rosemarinic acid, reference compound]
pIC50 (5-lipoxygenase): 5.21
Inhibition of lipoxygenase enzyme activity (in words) (lipoxygenase): strongly inhibit lipoxygenase enzyme activity

COC(=O)[C@@H](Cc1ccc(O)c(O)c1)OC(=O)/C=C/c1ccc(O)c(O)c1 [Comparison 2, rosemarinic acid methyl ester, reference compound]
pIC50 (5-lipoxygenase; rat PMNL enzyme, 37° C., 5 min): 6.22
Inhibition of lipoxygenase enzyme activity (in words) (lipoxygenase): strongly inhibit lipoxygenase enzyme activity

O=C(O)/C=C/c1ccc(O)c(O)c1 [Comparison 5, caffeic acid, reference compound]
pIC50 (5-lipoxygenase): 4.14

CC(Cc1ccc(O)c(O)c1)C(C)Cc1ccc(O)c(O)c1 (stereo not shown) [Comparison 7, NDGA]
Regulating Coefficient [1]: 38%
Regulating Coefficient [2]: 40%

CC(C(=O)O)c1cccc(C(=O)c2ccccc2)c1 (stereo not shown) [Comparison 8, ketoprophen]
Regulating Coefficient [1]: 32%

O=C1CCN(c2ccccc2)N1 [Comparison 9, phenidone]
Regulating Coefficient [1]: 44%

COc1ccc(CN(CCN(C)C)c2ccccn2)cc1 [Comparison 10, mepiramine]
Regulating Coefficient [1]: 38%

O=c1cc(-c2ccc(O)c(O)c2)oc2cc(O)cc(O)c12 [Embodiment 1, luteolin]
Inhibitory activity against 12-lipoxygenase (in words) (12-lipoxygenase): very strong inhibitory activity, similar to that against 5-lipoxygenase
Inhibitory activity against 5-lipoxygenase (in words) (5-lipoxygenase; in words): significant 5-LO inhibitory activity; also recorded: stronger inhibitory activity than that of Comparison 1 (rosemarinic acid) and Comparison 2 (rosemarinic acid methyl ester)
pIC50 (5-lipoxygenase; rat PMNL enzyme, 37° C., 5 min): 7.00
Inhibition of lipoxygenase enzyme activity (in words) (lipoxygenase): strongly inhibit lipoxygenase enzyme activity; also recorded: outstanding inhibitory activity
Regulating Coefficient ([3]; 0.3 mg/ear, 48 hours after challenge): 52%
Anti-allergic action (in words) [3]: higher regulating coefficient for a smaller amount of application against Comparisons 7 to 10
Anti-allergic action (in words) ([3]; listed as luteolin): significant anti-allergic action
Regulating Coefficient ([4]; 0.15 mg/ear): 85%
Regulating Coefficient ([4]; 0.3 mg/ear): 100%
Regulating effect against inflammation (in words) ([4]; in words): significant regulating effect against inflammation; also recorded: anti-inflammatory action, which correlated with the concentration of luteolin

COc1cc(-c2cc(=O)c3c(O)cc(O)cc3o2)ccc1O [Embodiment 2, chrysoeriol]
Inhibition of lipoxygenase enzyme activity (in words) (lipoxygenase): strongly inhibit lipoxygenase enzyme activity; also recorded: lesser inhibitory activity

O=c1cc(-c2ccc(O)cc2)oc2cc(O)cc(O)c12 [apigenin]
Inhibition of lipoxygenase enzyme activity (in words) (lipoxygenase): strongly inhibit lipoxygenase enzyme activity
